These results are taken from patent US12559504B2, “Benzotriazole derivative” (UBE CORPORATION, priority 2019, dated 2026).

Series [1] can be described thus: Metabolism test using human liver microsome fractions. Format: in vitro ADME. Conditions: human liver microsomes, test compound 10 μmol/L, NADPH and UDP-glucuronic acid, 37° C. Here is the method: A reaction composition solution (comprising NADPH Regenerating System, Solution A (manufactured by Corning Inc., REF. 451220) (50 μL), NADPH Regenerating System, Solution B (manufactured by Corning Inc., REF. 451200) (10 μL), 250 mM UDP-glucuronic acid (40 μL), UGT Reaction Mix Solution B (manufactured by Corning Inc., REF. 451320) (200 μL), and distilled water (640 μL)) in which human liver microsomes (manufactured by Xenotech, Cat. No. H610) or monkey liver microsomes (manufactured by Xenotech, Cat. No. P2000) (corresponding to 1 mg of protein) were suspended was prepared. After the solution was incubated at 37° C. for 5 minutes, each test compound dissolved into DMSO (manufactured by FUJIFILM Wako Pure Chemical Corporation, Code No. 043-07216) was added to the solution so that the final concentration was set to be 10 μmol/L, and a reaction was initiated. After 0, 5, 10, 15, 20, and 30 minute(s) from the initiation of the metabolism reaction, 100 μL of the reaction solution was taken out of the reaction system, and added to 200 μL of acetonitrile to stop the reaction. After the reaction was completed, the reaction solution was subjected to a work-up such as deproteinization, and then subjected to an UV-HPLC analysis to carry out the following analysis.
The peak area of each test compound was calculated by LabSolution software (Shimadzu Corporation), and the residual ratio (%) at each culture time of test material was calculated by the following equation. Residual ratio (%)=Peak area at each culture time[…]Peak area at 0 (initial time)
Next, the residual amount (nmol/mg/mL) at each culture time of test material was calculated by the following equation. Residual amount (nmol/mg/mL)=Initial concentration of reaction solution (10 nmol/mg/mL)×residual ratio÷100
Finally, a graph in which the reaction time was plotted at horizontal axis and the residual amount was plotted at longitudinal axis was prepared on Excel, and the inclination was calculated as the elimination rate (pmol/min/mg-P) within the time range in which the graph was deemed linear.
For orientation: Liver microsomes are a subcellular fraction often used to study metabolism.

For series [2], the target named is T1, GST fusion human Keap1 (amino acid residue: 325-624) protein (Homo sapiens, UniProt Q14145).
T1 construct: GST fusion human Keap1 (amino acid residue: 325-624) protein; purchased Protein tech Ag0779
T1 sequence (Q14145 325-624): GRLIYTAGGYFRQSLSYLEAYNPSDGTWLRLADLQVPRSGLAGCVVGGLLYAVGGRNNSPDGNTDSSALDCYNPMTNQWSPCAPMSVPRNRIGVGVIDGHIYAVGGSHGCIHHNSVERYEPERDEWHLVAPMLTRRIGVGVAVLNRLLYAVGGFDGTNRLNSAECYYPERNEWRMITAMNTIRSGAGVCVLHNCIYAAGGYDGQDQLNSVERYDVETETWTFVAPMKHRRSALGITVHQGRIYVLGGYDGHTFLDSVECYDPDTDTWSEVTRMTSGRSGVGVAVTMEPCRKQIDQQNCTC
Briefly: Keap1-Nrf2 binding inhibition test (fluorescence polarization). The note with it: compound concentration of 100 nM; read-out: inhibition rate. On the procedure: The inhibitory activity of each test compound on the binding between Nrf2 and Keap1 was measured by the fluorescence polarization method. A solution consisting of 20 mM tris-hydrochloride pH7.5 (NIPPON GENE CO., LTD., REF: 318-90225), 150 mM NaCl [FUJIFILM Wako Pure Chemical. Corporation, REF: 191-01665], 0.05% Tween 20 (BioRAD, REF: 161-0781), and 5 mM DTT (FUJIFILM Wako Pure Chemical Corporation, REF: 049-08972) was used as a buffer solution. To a test compound solution (70 μL) adjusted to each concentration with 10% DMSO (FUJIFILM Wako Pure Chemical Corporation, REF: 043-07216) was added a buffer solution (350 μL) comprising 6 nM FITC-labeled Nrf2 peptide (FITC-Ahx-LDEETGEFL-NH2, Invitrogen) and 0.2 mg/mL of BSA (FUJIFILM Wako Pure Chemical Corporation, REF: 017-22231). Each 120 μL of the resulting mixture was dispensed into a black 96 well plate, and a buffer solution (80 μL) comprising 2.5 nM GST fusion human Keap1 (amino acid residue: 325-624) protein (Protein tech, REF: Ag0779) was added thereto. A Keap1-free buffer solution was added to some wells to prepare negative controls. Meanwhile, compound-free wells were used as positive controls. The plate was incubated at room temperature for 30 minutes, and each fluorescence polarization at excitation wavelength of 482 nm and fluorescence wavelength of 530 nm was measured by using a plate reader Clariostar (BMG Labtech). The fluorescence polarization of the negative control was set to be 100% inhibition, fluorescence polarization of the positive control was set to be 0% inhibition, and the inhibition rate of each test compound at 100 nM was calculated by using the following equation. Inhibition rate (%)=100−((Fluorescence polarization when test compound was added−Fluorescence polarization of negative control)/(Fluorescence polarization of positive control−Fluorescence polarization of negative control))×100

Series [3] concerns NQO1. Briefly: NQO1 expression induction test in mouse kidney (single administration). It is filed as in vivo. The note with it: BALB/c mouse kidney, 6 hours after administration, ratio to control group. On the procedure: Each test compound solution for administration was prepared by dissolving or suspending each test compound into a 0.5 w/v % aqueous solution of methylcellulose (0.5% MC) (manufactured by Wako Pure Chemical Industries, Ltd.).
Each prepared test compound was orally administered to a BALB/c mouse (female, provided by Charles River Laboratories Japan, Inc.). Non-treated group was used as a control group. After 6 hours from the administration, each mouse was anesthetized with isoflurane, and euthanized with bloodletting by incising a lower aorta. Immediately, the left kidney was excised, cut into small pieces, and then the cut kidney pieces were transferred to RNA later (Thermo Fisher Scientific).
Then, mRNA was extracted from the collected kidney pieces by using NucleoSpin (registered trademark) RNA Kit (Takara Bio Inc.), each concentration was quantified by FlexStation3 (Molecular Devices), and then the concentration was adjusted to a constant concentration. A reverse transcription synthesis of cDNA was carried out from the mRNA with the constant concentration by using PrimeScript™ RT reagent Kit with gDNA Eraser and PCR Thermal Cycler (Takara Bio Inc.). Then, in addition to the resulting cDNA, SYBR (registered trademark) Premix Ex Taq™ II and NQO1, GAPDH primer (Takara Bio Inc.) were used to carry out Real-time PCR by PCR Thermal Cycler Dice Real time (Takara Bio Inc.), and the NQO1 expression was quantified by using the GAPDH expression as the reference.
In order to evaluate the NQO1 expression induction in each group, the NQO1 expression induction ratio was calculated by using the following equation. (NQO1 expression induction ratio)=(Average NQO1 expression in test compound administered group)[…](Average NQO1 expression in control group)

Some results are limits rather than exact numbers.

What is called inhibition is how much of the control response was suppressed. A word on the fold induction: it is the ratio of treated to control signal.

On to `CC[C@@H]1CN(Cc2cc(C(c3ccc4c(nnn4C)c3C)C(C)(C)C(=O)O)ccc2C)Cc2ncc3ccccc3c2O1` (single isomer, unassigned) [Example 46], for which the Human metabolic rate result in series [1] is listed as “E (metabolic rate≥250 pmol/min/mg protein)”.

On to `CC[C@@H]1CN(Cc2cc(C(c3ccc4c(nnn4C)c3C)C(C)(C)C(=O)O)ccc2C)Cc2cc3ncccc3cc2O1` (single isomer, unassigned) [Example 42], for which, in series [1], the Human metabolic rate result is listed as “E (metabolic rate≥250 pmol/min/mg protein)”.

Consider `CC[C@@H]1CN(Cc2cc(C(c3ccc4c(nnn4C)c3C)C(C)(C)C(=O)O)ccc2C)Cc2cc3cccnc3cc2O1` (single isomer, unassigned) [Example 40], for which the Human metabolic rate result in series [1] is on record as “E (metabolic rate≥250 pmol/min/mg protein)”.

Turning to `CC[C@@H]1CN(Cc2cc(C(c3ccc4c(nnn4C)c3C)C(C)(C)C(=O)O)ccc2C)Cc2cc3c(cc2O1)OC(F)(F)O3` (single isomer, unassigned) [Example 30], the Human metabolic rate result in series [1] is given as “E (metabolic rate≥250 pmol/min/mg protein)”.

`CC[C@@H]1CN(Cc2cc(C(c3ccc4c(nnn4C)c3C)C3(C(=O)O)CCC3)ccc2C)Cc2cc3ncccc3cc2O1` (single isomer, unassigned) [Example 88]: the Human metabolic rate result in series [1] is “E (metabolic rate≥250 pmol/min/mg protein)”.

`CC[C@@H]1CN(Cc2cc(C(c3ccc4c(nnn4C)c3C)C(C)(C)C(=O)O)ccc2C)Cc2nc3ccccc3cc2O1` (single isomer, unassigned) [Example 37]: the inhibition at 0.1 µM in series [2] is no less than 50%. The fold induction at 10 mg/kg in series [3] (Mus musculus, po, 6 h) was greater than 6. Moreover, the Human metabolic rate result in series [1] was “A (metabolic rate<100 pmol/min/mg protein)”.

As for `CC[C@@H]1CN(Cc2cc(C(c3ccc4c(nnn4C)c3C)C(C)(C)C(=O)O)ccc2C)Cc2c(ccc3cn[nH]c23)O1` (single isomer, unassigned) [Example 44], in series [1], the Human metabolic rate result is listed as “E (metabolic rate≥250 pmol/min/mg protein)”.

`Cc1ccc(C(c2ccc3c(nnn3C)c2C)C(C)(C)C(=O)O)cc1CN1Cc2cc3ncccc3cc2OC2(CC2)C1` (single isomer, unassigned) [Example 86, 3-(3-((3′H-spiro[cyclopropane-1,2′-[1,4]oxazepino[7,6-g]quinoline]-4′ (5′H)-yl)methyl)-4-methylphenyl)-3-(1,4-dimethyl-1H-benzo[d][1,2,3]triazol-5-yl)-2,2-dimethylpropanoic Acid]: in series [1], the Human metabolic rate entry is on record as “E (metabolic rate≥250 pmol/min/mg protein)”.

With `CCCC1CN(Cc2cc(C(c3ccc4c(nnn4C)c3C)C(C)(C)C(=O)O)ccc2C)Cc2cc3ncccc3cc2O1` (centres unmarked) [Example 77-(b), 3-(1,4-dimethyl-1H-benzo[d][1,2,3]triazol-5-yl)-2,2-dimethyl-3-(4-methyl-3-((2-propyl-2,3-dihydro-[1,4]oxazepino[7,6-g]quinolin-4 (5H)-yl)methyl)phenyl)propanoic Acid], in series [2], the inhibition at 0.1 µM was no less than 50%. For the same compound, the fold induction at 20 mg/kg in series [3] (Mus musculus, po, 6 h, Dose 20 mg/kg) is greater than 6. In addition, in series [1], the Human metabolic rate entry is recorded as “B (100≤metabolic rate<150 pmol/min/mg protein)”.

Turning to `CC[C@H]1CN(Cc2cc(C(c3ccc4c(nnn4C)c3C)C(C)(C)C(=O)O)ccc2C)Cc2ncc3ccccc3c2O1` (single isomer, unassigned) [Example 90], the Human metabolic rate result in series [1] is “C (150≤metabolic rate<200 pmol/min/mg protein)”.

As to `CC[C@H]1CN(Cc2cc(C(c3ccc4c(nnn4C)c3C)C(C)(C)C(=O)O)ccc2C)Cc2cc3ncccc3cc2O1` (single isomer, unassigned; diastereomer 1) [Example 57-(c)], the inhibition at 0.1 µM in series [2] was no less than 50%. Further, in series [1], the Human metabolic rate result is on record as “C (150≤metabolic rate<200 pmol/min/mg protein)”.

On to `CC[C@@H]1CN(Cc2cc(C(c3ccc4c(nnn4C)c3C)C(C)(C)C(=O)O)ccc2C)Cc2ccccc2O1` (single isomer, unassigned) [Example C2, reference compound], for which the Human metabolic rate entry in series [1] is on record as “E (metabolic rate≥250 pmol/min/mg protein)”.

With `CC[C@@H]1CN(Cc2cc(C(c3ccc4c(nnn4C)c3C)C(C)(C)C(=O)O)ccc2C)Cc2cc3c(cc2O1)CCCC3` (single isomer, unassigned) [Example 34], the Human metabolic rate entry in series [1] is given as “C (150≤metabolic rate<200 pmol/min/mg protein)”.

Turning to `CCCC1CN(Cc2cc(C(c3ccc4c(nnn4C)c3C)C(C)(C)C(=O)O)ccc2C)Cc2cc3ncccc3cc2O1` (centres unmarked) [Example 78-(b), 3-(1,4-dimethyl-1H-benzo[d][1,2,3]triazol-5-yl)-2,2-dimethyl-3-(4-methyl-3-((2-propyl-2,3-dihydro-[1,4]oxazepino[7,6-g]quinolin-4 (5H)-yl)methyl)phenyl)propanoic Acid], the “NQO1 expression induction activity” value in series [3] (Dose 20 mg/kg, oral, 20 mg/kg) is given as “B (3<NQO1 expression induction ratio≤6)”. The Human metabolic rate result in series [1] is given as “B (100≤metabolic rate<150 pmol/min/mg protein)”.

Regarding `CC[C@@H]1CN(Cc2cc(C(c3ccc4c(nnn4C)c3C)C(C)(C)C(=O)O)ccc2C)Cc2cc3c(cc2O1)CCC3` (single isomer, unassigned) [Example 31], the inhibition at 0.1 µM in series [2] was no less than 50%. In addition, the fold induction at 10 mg/kg in series [3] (Mus musculus, po, 6 h) was 3 to 6. For the same compound, the Human metabolic rate result in series [1] is recorded as “B (100≤metabolic rate<150 pmol/min/mg protein)”.

With `CC[C@@H]1CN(Cc2cc(C(c3ccc4c(nnn4C)c3C)C(C)(C)C(=O)O)ccc2C)Cc2nc3ccccc3cc2O1` (single isomer, unassigned) [Example 38], in series [1], the Human metabolic rate result is “E (metabolic rate≥250 pmol/min/mg protein)”.

For `CC[C@@H]1CN(Cc2cc(C(c3ccc4c(nnn4C)c3C)C(C)(C)C(=O)O)ccc2C)Cc2cc3c(cc2O1)CCC3` (single isomer, unassigned) [Example 32], in series [1], the Human metabolic rate result is on record as “D (200≤metabolic rate<250 pmol/min/me protein)”.

With `CC[C@@H]1CN(Cc2cc(C(c3ccc4c(nnn4C)c3C)C(C)(C)C(=O)O)ccc2C)Cc2ccc3c(c2O1)CCC3` (single isomer, unassigned) [Example 36], in series [1], the Human metabolic rate result is given as “C (150≤metabolic rate<200 pmol/min/mg protein)”.
